These are literature values, as cited in EP4160208A1, “URINE SEDIMENT STAINING LIQUID” (TOYOBO CO., LTD., priority 2020, dated 2021).

Turning to `NC(=O)CN(CC(=O)O)CC(=O)O` [ADA], the pKa is 6.80.
`O=S(=O)(O)CCNC(CO)(CO)CO` [TES]: the pKa is on record as 7.50.
`O=C(O)CNC(CO)(CO)CO` [Tricine]: the pKa was 8.15.
With `O=S(=O)(O)CCN(CCO)CCO` [BES], the pKa is listed as 7.15.
On to `O=S(=O)(O)CCN1CCN(CCO)CC1` [HEPES], for which the pKa is given as 7.55.

The pKa is the pH at which an ionisable group is half protonated.
